According to patent publication US9474744B2, “Beta-lactam compounds for treating diabetes” (STEM CELL MEDICINE LTD., priority 2011, dated 2016):

What was measured:
[1] = test system: encephalitogenic BP10 line; test: Adoptive EAE: BP10 T-cell line stimulated in vitro with test substance, then injected into naive rats; format: in vivo, rat; conditions: BP10 line stimulated 3 days with MBP in presence of 50 μg/ml antibiotic; 10^7 cells per rat
Procedure: Antigen-specific T-cell lines were established from lymph node cells that had been stimulated with myelin basic protein (MBP; 10 μg/ml) for 3 days in stimulation medium as described below. Following stimulation, the T-cell blasts were isolated on LYMPHOPREP™ (Nycomed Pharma, Oslo, Norway) and seeded in propagation medium. Propagation medium was identical to stimulation medium without autologous serum, but supplemented with fetal calf serum 10% and T-cell growth factors from the supernatant of Con A stimulated spleen cells 10% (Mor et al. (1990) J Clin Invest, 85, 1594-1598). Animals were injected intra-peritoneally with 107 MBP-stimulated T cells, following 6-8 cycles of in vitro stimulations. It is known that MBP-reactive lines undergo a reduction in pathogenicity after 6 or more in vitro stimulations. In some experiments the BP10 line was stimulated with phorbol myristate acetate (PMA; 50 ng/ml) and ionomycin (500 ng/ml) for 3 days in stimulation medium, without antigen-presenting cells.
Active EAE was induced by subcutaneous injection of 25 μg guinea-pig MBP (GpMBP) in complete Freund's adjuvant (CFA). […] Adoptive EAE was transferred by intra-peritoneal injection of guinea-pig MBP-activated cells of the BP10 line as described in Mor et al. (1993) J Clin Invest, 92, 2199-2206. […] Clinical scoring was: +1, paralysis of tail; +1.5, paresis of posterior paws and ataxia; +2, paraplegia; +3, paralysis extending to thoracic spine; +4, a moribund state.
Treatment with cefuroxime in vivo could affect many different host agents involved in EAE or AA as well as influencing the rats' bacterial flora. To test whether the antibiotic might directly modify the behavior of effector T cells, an encephalitogenic T-cell line was stimulated in the presence or absence of cefuroxime in vitro. The weakly encephalitogenic BP10 line was used, and was stimulated for 3 days with MBP in the presence or absence of cefuroxime (50 μg/ml). The activated T cells were then washed to remove the antibiotic, the T cells were injected intra-peritoneally into naïve recipient rats (10^7 per rat), and EAE was scored. The BP10 line at later stimulations was used, when its pathogenic potential is reduced, allowing to detect both suppression and enhancement of disease. […] To rule out antigen presenting cells (APC) as the target of the beta-lactam antibiotic, the encephalitogenic BP10 line was stimulated without APC using PMA (50 ng/ml) and Ionomycin (500 ng/ml) in the presence or absence of cefuroxime.
Additional beta-lactam antibiotics were tested for their effect on the adoptive transfer of EAE.
A control group was injected with the untreated line.

[2] = test system: CD4+ human T cells; test: Human Autoimmune and Inflammatory Response Gene Array, anti-CD3-stimulated T cells with or without antibiotic; format: cell-based; conditions: 120 min anti-CD3; for % increase by Amp: ampicillin 50 μg/ml
Procedure: T cells were purified from the peripheral bloods of healthy human donors (Blood Bank, Sheba Medical center). The whole blood was incubated (20 min, 22° C.) with RosetteSep™ human T cell enrichment mixture (StemCell Technologies, Vancouver, Canada). The remaining unsedimented cells were then loaded onto lymphocyte separation medium (ICN Biomedicals, Irvine, Calif.), isolated by density centrifugation, and washed with PBS. […] In a second round of purification, CD3^+ T cells were labeled for selection with a magnetically coupled mAb against CD4 (Miltenyi Biotec, Auburn, Calif.).
Human CD4 T cells were isolated as described, and incubated in 24 well plates (Nunc), 4×10^6 cells/ml with plate bound anti-human CD3 (OKT3) at 2 μg/ml. The stimulation was performed in RPMI medium supplemented with 0.1% BSA. […] RNA was extracted from samples and used to prepare probes for gene array in accord with the manufacturer's instructions (SuperArray Bioscience, Frederick, Md.). Adequate labeling of the probes was tested before hybridization. Three healthy donors were tested in stimulation with cefuroxime. The membranes were analyzed online with the Image Data Acquisition and Expression Analysis (SuperArray Bioscience).
The Human Autoimmune and Inflammatory Response Gene Array (SuperArray Bioscience corporation, Frederick, Md., USA) was used for analysis of gene expression by the T cells. This array contains 367 genes including cytokines, chemokines and their receptors, transcription factors and signaling proteins. […] Analysis of the results was performed using the GEArray analysis program. […] To verify the results detected by the gene array study, a panel of six genes was designed and tested by real-time PCR: CCR4, ACVR2, JAK1, STAT4, TLR2 and NFKBIE. The cDNA that was used was prepared from the same RNA used for the gene array experiment.

CC1(C)S[C@@H]2[C@H](NC(=O)[C@H](N)c3ccccc3)C(=O)N2[C@H]1C(=O)O [ampicillin]
severity of adoptive EAE in recipient rats [1]: did not increase the severity of EAE
number of the 57 cefuroxime-down-regulated genes that were up-regulated ([2]; 50 μg/ml): 56 genes
% increase by Amp ([2]; gene ACTB): +196%
% increase by Amp ([2]; gene ACVR1, A low expression): +53%
% increase by Amp ([2]; gene ACVR2, A low expression): +85%
% increase by Amp ([2]; gene CCL5): +25%
% increase by Amp ([2]; gene CCL11): +107%
% increase by Amp ([2]; gene CCR4): +31%
% increase by Amp ([2]; gene CCR6): +83%
% increase by Amp ([2]; gene CCR7): +43%
% increase by Amp ([2]; gene CD28): +175%
% increase by Amp ([2]; gene CD40LG): +67%
% increase by Amp ([2]; gene CREBBP): +49%
% increase by Amp ([2]; gene CXCL10): +25%
% increase by Amp ([2]; gene EGR3): −25%
% increase by Amp ([2]; gene GFI1): +10%
% increase by Amp ([2]; gene HRAS, A low expression): −12%
% increase by Amp ([2]; gene IL1B, A low expression): +64%
% increase by Amp ([2]; gene IL2RB): +93%
% increase by Amp ([2]; gene IL2RG, A low expression): +78%
% increase by Amp ([2]; gene IL9R): No change
% increase by Amp ([2]; gene IL16, A low expression): +14%
% increase by Amp ([2]; gene IRAK1): +171%
% increase by Amp ([2]; gene JAK1): +161%
% increase by Amp ([2]; gene JUN): +65%
% increase by Amp ([2]; gene LTA): +48.5%
% increase by Amp ([2]; gene MAP2K4): +150%
% increase by Amp ([2]; gene MAP3K1, A low expression): +63%
% increase by Amp ([2]; gene MAP3K2): +93%
% increase by Amp ([2]; gene MAP3K7): +124%
% increase by Amp ([2]; gene MAPK9): +46%
% increase by Amp ([2]; gene NFKB1): +31%
% increase by Amp ([2]; gene NFKB2): +195%
% increase by Amp ([2]; gene NFKBIE): +132%
% increase by Amp ([2]; gene NFKBIL1): +191%
% increase by Amp ([2]; gene PAK1): +111%
% increase by Amp ([2]; gene PIN1): +105%
% increase by Amp ([2]; gene RANBP5): +108%
% increase by Amp ([2]; gene REL): +132%
% increase by Amp ([2]; gene RFX5): +137%
% increase by Amp ([2]; gene RFXAP): +131%
% increase by Amp ([2]; gene SDF2): +71%
% increase by Amp ([2]; gene SELL): +124%
% increase by Amp ([2]; gene SMAD4): +85%
% increase by Amp ([2]; gene SMAD7, A low expression): +34%
% increase by Amp ([2]; gene SP3): +47%
% increase by Amp ([2]; gene SRF): +58%
% increase by Amp ([2]; gene STAT1): +85%
% increase by Amp ([2]; gene STAT4): +11%
% increase by Amp ([2]; gene STAT6): no change
% increase by Amp ([2]; gene TGFBR3): +139%
% increase by Amp ([2]; gene TGIF, A low expression): +72%
% increase by Amp ([2]; gene TLR2, A low expression): +419%
% increase by Amp ([2]; gene TNFRSF11, A low expression): +81%
% increase by Amp ([2]; gene TNFα): +39%
% increase by Amp ([2]; gene TRAF5, A low expression): +47%
% increase by Amp ([2]; gene TRAF6, A low expression): +39%
% increase by Amp ([2]; gene YY1): +152%
